Reference: the OligoGym collection
These antisense oligonucleotides have a phosphorothioate backbone; sugars and methylation of C are not fully specified.

Key:
[1] = biological target: SRA1; settings: ASO
[2] = ASO
Also: test concentration or dose not given here.

Sequence: CTCGACTGGGAAACTTGT
- remaining target (mRNA or protein) (fraction of control) [1]: 0.63

Sequence: ACCTGCTTCCTTGTGTGG
- remaining target (mRNA or protein) (fraction of control) [1]: 0.32

Sequence: GGAGCCTTACTTGAAGGA
- remaining target (mRNA or protein) (fraction of control) [1]: 0.54

Sequence: CCTTGTGTGGCCACGGCA
- remaining target (mRNA or protein) (fraction of control) [1]: 0.43

Sequence: TTGGTAAGCAGCGAGCGC
- remaining target (mRNA or protein) (fraction of control) [1]: 0.56

Sequence: TTTACAGGTATTGACAAC
- remaining target (mRNA or protein) (fraction of control) [1]: ≥ 1

Sequence: GGGTCCGCCGGCCTGGGT
- remaining target (mRNA or protein) (fraction of control) [1]: ≥ 1

Sequence: CCATTCTCTTCTTTACAG
- remaining target (mRNA or protein) (fraction of control) [1]: 0.6

Sequence: CAGAGGTTTGCAGATACA
- remaining target (mRNA or protein) (fraction of control) [1]: 0.35

Sequence: CTTTTCTGCAATTAATCT
- remaining target (mRNA or protein) (fraction of control) [1]: 0.61

Sequence: CCGCGTTCCTTGTTGCCG
- remaining target (mRNA or protein) (fraction of control) [1]: 0.94

Sequence: TGGTAAGCAGCGAGCGCC
- remaining target (mRNA or protein) (fraction of control) [1]: 0.74

Sequence: AGCGGTGGATGTCATCTG
- remaining target (mRNA or protein) (fraction of control) [1]: 0.65

Sequence: GGCGTCGGCTGATGTCAT
- remaining target (mRNA or protein) (fraction of control) [1]: 0.42

Sequence: TTCCAAAGGTCTCAGCAC
- remaining target (mRNA or protein) (fraction of control) [1]: 0.49

Sequence: GGGTCAGGCCCAGTGGGA
- remaining target (mRNA or protein) (fraction of control) [1]: ≥ 1

Sequence: CTGCTGCGTCCCACCGGT
- remaining target (mRNA or protein) (fraction of control) [1]: 0.21

Sequence: CTCCTACCATCCACTGAC
- remaining target (mRNA or protein) (fraction of control) [1]: 0.46

Sequence: ACATGGTCAACCATGAGG
- remaining target (mRNA or protein) (fraction of control) [1]: 0.54

Sequence: AAGGAGGTGGAGGCCCCA
- remaining target (mRNA or protein) (fraction of control) [1]: 0.72

Sequence: CGTATGAGAACTGCGGCG
- remaining target (mRNA or protein) (fraction of control) [1]: ≥ 1

Sequence: TGTGTGGCCACGGCAGTC
- remaining target (mRNA or protein) (fraction of control) [1]: 0.47

Sequence: ACCACTCCCCACAGGTGG
- remaining target (mRNA or protein) (fraction of control) [1]: ≥ 1

Sequence: CCCGGCTTCACGTACAGC
- remaining target (mRNA or protein) (fraction of control) [1]: 0.63

Sequence: TTCCAGCCGCGTTCCTTG
- remaining target (mRNA or protein) (fraction of control) [1]: ≥ 1

Sequence: CATCACATACCTGCTTCC
- remaining target (mRNA or protein) (fraction of control) [1]: 0.68

Sequence: TGTCATCACATACCTGCT
- remaining target (mRNA or protein) (fraction of control) [1]: 0.76

Sequence: CGAGCGCCTGGGTCCGCC
- remaining target (mRNA or protein) (fraction of control) [1]: 0.48

Sequence: CAGCACATCCTCCATCAG
- remaining target (mRNA or protein) (fraction of control) [1]: 0.61

Sequence: CTCAGCTGTGGCTGCAGA
- remaining target (mRNA or protein) (fraction of control) [1]: ≥ 1

Sequence: CCAGCCGCGTTCCTTGTT
- remaining target (mRNA or protein) (fraction of control) [1]: 0.69

Sequence: GGATGCTTGTTCAGTCTA
- remaining target (mRNA or protein) (fraction of control) [1]: ≥ 1

Sequence: CTTTCCTCCAGCCCACTG
- remaining target (mRNA or protein) (fraction of control) [1]: 0.36

Sequence: GGTGGTGGTAAGAAGGGA
- remaining target (mRNA or protein) (fraction of control) [1]: ≥ 1

Sequence: CGTCGGCTGATGTCATCA
- remaining target (mRNA or protein) (fraction of control) [1]: 0.61

Sequence: TTCCTTGTTGCCTGCGGA
- remaining target (mRNA or protein) (fraction of control) [1]: 0.72

Sequence: TCAGTCACATGGTCAACC
- remaining target (mRNA or protein) (fraction of control) [1]: 0.5

Sequence: ATGCATGTTATGAGTAAC
- remaining target (mRNA or protein) (fraction of control) [1]: ≥ 1

Sequence: AGAGGCAGGACCACTCCC
- remaining target (mRNA or protein) (fraction of control) [1]: 0.92

Sequence: GAGAGATGCCCACCCACC
- remaining target (mRNA or protein) (fraction of control) [2]: ≥ 1

Sequence: CTGAAAGTGACAGTGTTT
- remaining target (mRNA or protein) (fraction of control) [2]: 0.79

Sequence: GGGAGTTGACGAAGATGG
- remaining target (mRNA or protein) (fraction of control) [2]: 0.96

Sequence: TAGATGCACTTGGAGCGA
- remaining target (mRNA or protein) (fraction of control) [2]: ≥ 1

Sequence: CTACAGGTTGGCCACTCTGG
- remaining target (mRNA or protein) (fraction of control) [2]: 0.33

Sequence: ATTCAGCATTTTGTAAGG
- remaining target (mRNA or protein) (fraction of control) [2]: 0.99

Sequence: CTGCCTCTCTCTCCTCCG
- remaining target (mRNA or protein) (fraction of control) [2]: ≥ 1

Sequence: AACTGAAATAACAACTTA
- remaining target (mRNA or protein) (fraction of control) [2]: 0.94

Sequence: GGAAACTGAGTCAAGCAA
- remaining target (mRNA or protein) (fraction of control) [2]: 0.62

Sequence: CCTTCAGCAAAACAAAAC
- remaining target (mRNA or protein) (fraction of control) [2]: 0.76

Sequence: CAAAGCGCTTAACTACAT
- remaining target (mRNA or protein) (fraction of control) [2]: ≥ 1

Sequence: ATTTCACTGTAAACGGCT
- remaining target (mRNA or protein) (fraction of control) [2]: 0.81

Sequence: TCATGGCCCGCATGGACA
- remaining target (mRNA or protein) (fraction of control) [2]: 0.7

Sequence: AGAAAAGGAAATCCCAAA
- remaining target (mRNA or protein) (fraction of control) [2]: ≥ 1

Sequence: CCTAGCAGTCTCTTCACTGC
- remaining target (mRNA or protein) (fraction of control) [2]: 0.74

Sequence: GTTGATCTCGTCCAGGTA
- remaining target (mRNA or protein) (fraction of control) [2]: 0.28

Sequence: GTAGATGAGGGCGATCAC
- remaining target (mRNA or protein) (fraction of control) [2]: ≥ 1

Sequence: CCCAGGCGGAGGTCGGCG
- remaining target (mRNA or protein) (fraction of control) [2]: ≥ 1

Sequence: GGCGAAGCTGATGCGGAC
- remaining target (mRNA or protein) (fraction of control) [2]: ≥ 1

Sequence: CAGCACCCCAACCCTTAACA
- remaining target (mRNA or protein) (fraction of control) [2]: 0.47

Sequence: TCTCCTTCATGCGGTTCT
- remaining target (mRNA or protein) (fraction of control) [2]: 0.61

Sequence: GGCTCAGAAGGACTTCCTGG
- remaining target (mRNA or protein) (fraction of control) [2]: 0.65

Sequence: CTTTGTTTCGGTTGCTGC
- remaining target (mRNA or protein) (fraction of control) [2]: 0.64

Sequence: CGTGTTGATAGTTGCAGTTC
- remaining target (mRNA or protein) (fraction of control) [2]: ≥ 1

Sequence: TGGGGGTGGTGGAGTGCATA
- remaining target (mRNA or protein) (fraction of control) [2]: 0.53

Sequence: TATTATCGAGTGACTGGT
- remaining target (mRNA or protein) (fraction of control) [2]: ≥ 1

Sequence: CACCCTGGCATCCCAAAT
- remaining target (mRNA or protein) (fraction of control) [2]: 0.13

Sequence: CCGCCAGAAAGACCCCAC
- remaining target (mRNA or protein) (fraction of control) [2]: ≥ 1

Sequence: TTCGCCGCACCGACTCGC
- remaining target (mRNA or protein) (fraction of control) [2]: 0.9

Sequence: CAGGTAGATGAGGGCGAT
- remaining target (mRNA or protein) (fraction of control) [2]: 0.74

Sequence: CACTCTCGGGCAGCCAGC
- remaining target (mRNA or protein) (fraction of control) [2]: 0.91

Sequence: CTGCTGTATCATTTTCTT
- remaining target (mRNA or protein) (fraction of control) [2]: ≥ 1

Sequence: CAAAACCTAAATCCCTGG
- remaining target (mRNA or protein) (fraction of control) [2]: ≥ 1

Sequence: TTTCTCATTGCCTTCACG
- remaining target (mRNA or protein) (fraction of control) [2]: ≥ 1

Sequence: AGTGCATAAGAGGCCACAGC
- remaining target (mRNA or protein) (fraction of control) [2]: 0.56

Sequence: GTGTAGTGGCTGAAAAGG
- remaining target (mRNA or protein) (fraction of control) [2]: ≥ 1

Sequence: TGCATAAGAGGCCACAGCAG
- remaining target (mRNA or protein) (fraction of control) [2]: 0.44

Sequence: TGAAGATGAATCTCAATCCA
- remaining target (mRNA or protein) (fraction of control) [2]: 0.88

Sequence: AAGGTGCTCTTCCCGCTC
- remaining target (mRNA or protein) (fraction of control) [2]: 0.29

Sequence: GCAGAGCCGGCTGAAGTG
- remaining target (mRNA or protein) (fraction of control) [2]: 0.96

Sequence: TCTCCTCCAGGCACTGGT
- remaining target (mRNA or protein) (fraction of control) [2]: 0.18

Sequence: AGTAGGTTTTGGTGGTTT
- remaining target (mRNA or protein) (fraction of control) [2]: ≥ 1

Sequence: TTGGTATCGATAGCACTACA
- remaining target (mRNA or protein) (fraction of control) [2]: 0.96

Sequence: TCCCAGGGTGTGCGTCAC
- remaining target (mRNA or protein) (fraction of control) [2]: ≥ 1

Sequence: GACTTCCTTGCCTGAAAC
- remaining target (mRNA or protein) (fraction of control) [2]: ≥ 1

Sequence: ACATTGAGGGAGTCGTTG
- remaining target (mRNA or protein) (fraction of control) [2]: ≥ 1

Sequence: ATTGGTCTCTCGTCTTTC
- remaining target (mRNA or protein) (fraction of control) [2]: ≥ 1

Sequence: TGCTGTCACTCACGCACTCG
- remaining target (mRNA or protein) (fraction of control) [2]: 0.57

Sequence: GTTCATTCCATTCAGTTG
- remaining target (mRNA or protein) (fraction of control) [2]: 0.87

Sequence: GTAAGTCCAGGAGATAGC
- remaining target (mRNA or protein) (fraction of control) [2]: 0.86

Sequence: GATGAACCTCTTGGCTGC
- remaining target (mRNA or protein) (fraction of control) [2]: ≥ 1

Sequence: AAAGAAGGGATAAGCACT
- remaining target (mRNA or protein) (fraction of control) [2]: 0.93

Sequence: CCATCTATGAGCACACTTCG
- remaining target (mRNA or protein) (fraction of control) [2]: 0.33

Sequence: AGGCTGCTGGAAAGAGTCAG
- remaining target (mRNA or protein) (fraction of control) [2]: 0.53

Sequence: GGAGTGCATAAGAGGCCACA
- remaining target (mRNA or protein) (fraction of control) [2]: 0.56

Sequence: CCATGGTGCGGTGGCCTC
- remaining target (mRNA or protein) (fraction of control) [2]: 0.94

Sequence: TTCTCATCCTCCGTCAGG
- remaining target (mRNA or protein) (fraction of control) [2]: ≥ 1

Sequence: CTTTCAAAGGAGGGAAAC
- remaining target (mRNA or protein) (fraction of control) [2]: ≥ 1

Sequence: TCCTTGCCTGAAACACCC
- remaining target (mRNA or protein) (fraction of control) [2]: ≥ 1

Sequence: CTATGGAAATGCAGCTTAAG
- remaining target (mRNA or protein) (fraction of control) [2]: 0.87

Sequence: GAGGCGCTGCGGAACTTGGC
- remaining target (mRNA or protein) (fraction of control) [2]: 0.5
